Where two headings read alike, the source gives them in different places.
Columns and labels:
[1] = test system: L. infantum MHOM/TN/80/IPT1 promastigotes; assay: L. infantum promastigotes viability assay (MTS); assay type: cell-based, Leishmania infantum; conditions: Leishmania infantum, 72 h; for inhibition at 20 µM: single dose 20 µM
Procedure: (§1) Finally, eighteen compounds were first screened for efficacy against L. infantum MHOM/TN/80/IPT1 promastigotes at a single dose of 20 µM for 72 hours.
(§2) L. infantum MHOM/TN/80/IPT1 (WHO international reference strain) was purchased from ATCC (ATCC® 50134™) and was cultured in Evans's Modified Tobie Medium (EMTM) at 26–28 °C. To test the compounds, parasites were resuspended in RPMI-PY medium as described previously. The human monocytic cell line THP-1 (ECACC 88081201) was cultured in RPMI-1640 medium supplemented with 10% heat-inactivated Fetal Bovine Serum (FBS), 100 μg/ml streptomycin, […] and maintained in a humidified incubator at 37 °C and 5% CO2. All the cell culture reagents were purchased from Sigma-Aldrich (St. Louis, MO, USA).
Late log/stationary phase L. infantum promastigotes were resuspended in RPMI-PY medium at a density of 2.5×10^6 parasites/mL in 96-well plates (100μL/well). The anti-parasitic activity of the eighteen compounds of the library was initially investigated at a single dose of 20 μM for 72 h at 26 °C. […] Not treated parasites were included as negative control. As positive control, the anti-leishmanial drug miltefosine (Sigma-Aldrich, Milan, Italy) was used. Each condition was carried out in duplicate. To evaluate the promastigotes viability, the CellTiter 96H Aqueous Non-Radioactive Cell Proliferation Assay (Promega), based on the ability of viable cells to convert a soluble tetrazolium salt [3-(4.5-dimethylthiazol-2-yl)-5-(3-carboxymethoxy-phenyl)-2-(4-sulfophenyl)-2H-tetrazolium. MTS] to a formazan product, was performed. To this end, 20 μL of MTS/PMS (phenazinemethosulfate, Sigma-Aldrich) was added to 100 μL of culture medium and incubated at 26°C until formazan production. Absorbance was recorded on a Microplate Reader (Infinite® F50 Plus, Tecan) at 492 nm. The IC50 values were calculated using nonlinear regression curves in GraphPad Prism 8.0 (GraphPad Software,Inc., San Diego, CA). The equation used for data fitting was Y= 100/(1 + 10∧((Log IC50 −X)*HillSlope)) (hillslope not constrained), where X is the log of concentration and Y is the normalized response. […]

THP-1 cells = assay: Evaluation of cytotoxicity on THP-1 cells (MTS); assay type: cell-based, human; conditions: for Cytotoxicity on THP‐1 (100, 20, 4 µM) (%): 72 h, PMA-differentiated THP-1
Procedure: as §1, §2
(§3) The cytotoxicity of the compounds was assessed on THP-1 cells seeded at a density of 5 × 10^5 cells per mL, 100μL/well in a 96-well plate and treated for 72 h with 20 ng/mL phorbol myristic acid (PMA) to induce differentiation into macrophages like cells. After cell adhesion to the plate, each molecule was tested at 4, 20 and 100 μM for 72 h at 37 °C.
(§4) Three selected compounds were further evaluated at different concentration, obtained from scalar dilutions 1:2 (from 100 µM to 3.12 μM) for 72 h at 37°C. The negative control (untreated THP-1 cells) and the positive control (miltefosine) were included in each experiment. Each condition was carried out in duplicate. To evaluate the compounds cytotoxicity, the CellTiter 96H Aqueous Non-Radioactive Cell Proliferation Assay (Promega), was used as described before. […]

[2] = Evaluation of cytotoxicity on THP-1 cells (MTS); assay type: cell-based, human; conditions: human, 72 h
Procedure: as §1, §2, §3, §4

[3] = roughly determined from 100, 20 and 4 µM, read-out: CC50 interval on THP-1 cells

Row | SMILES | inhibition at 20 µM [1] | Cytotoxicity on THP‐1 (100, 20, 4 µM) (%) (THP-1 cells; 4 µM) | Cytotoxicity on THP‐1 (100, 20, 4 µM) (%) (THP-1 cells; 20 µM) | Cytotoxicity on THP‐1 (100, 20, 4 µM) (%) (THP-1 cells; 100 µM) | CC50 at 72 h [2, 3] | IC50 ([1]; scalar dilutions 2:3 from 20 to 1.17 µM, mean (95% CI)) | CC50 at 72 h ([2]; scalar dilutions 1:2 from 100 to 3.12 µM, mean (95% CI), read-out: THP‐1 CC50 (µM) (95% CI)) | SI (Selectivity index = CC50/IC50) (THP-1 cells; CC50 THP-1 (72 h) / IC50 L. infantum promastigotes (72 h))
1 | NCC(c1c[nH]c2cc(-c3ccc(F)cc3)ccc12)c1c[nH]c2cc(-c3ccc(F)cc3)ccc12 [3ab, 2,2-bis(6-(4-fluorophenyl)-1H-indol-3-yl)ethan-1-amine] | 97.1% | −33% | 97% | 85% |  |  |  | 
2 | NCC(c1c[nH]c2cc(-c3ccccc3)ccc12)c1c[nH]c2cc(-c3ccccc3)ccc12 [3aa, 2,2-bis(6-phenyl-1H-indol-3-yl)ethan-1-amine] | 96.2% | −18% | 97% | 87% |  |  |  | 
3 | NCC(c1c[nH]c2cc(-c3cccc(-c4ccccc4)c3)ccc12)c1c[nH]c2cc(-c3cccc(-c4ccccc4)c3)ccc12 [3ah, 2,2-bis(6-([1,1'-biphenyl]-3-yl)-1H-indol-3-yl)ethan-1-amine] |  | −20% | 32% | 77% | 20 to 100 µM |  |  | 
4 | CC(C)Cc1ccc(-c2ccc3c(C(CN)c4c[nH]c5cc(-c6ccc(CC(C)C)cc6)ccc45)c[nH]c3c2)cc1 [3ac, 2,2-bis(6-(4-isobutylphenyl)-1H-indol-3-yl)ethan-1-amine] | ≤ 51.4% | −17% | 1% | 88% | 20 to 100 µM |  |  | 
5 | CCCCCCCCCCCCCCCCOP(=O)([O-])OCC[N+](C)(C)C [Milt, miltefosine, reference compound] | 98.5% | −35% | 6% | 99% |  | 3.7 µM | 36.6 µM | 9.8
6 | COc1cccc(OC)c1-c1ccc2c(C(CN)c3c[nH]c4cc(-c5c(OC)cccc5OC)ccc34)c[nH]c2c1 [3al, 2,2-bis(6-(2,6-dimethoxyphenyl)-1H-indol-3-yl)ethan-1-amine] | ≤ 51.4% | −5% | 47% | 84% | 20 to 100 µM |  |  | 
7 | COc1cccc(-c2ccc3c(C(CN)c4c[nH]c5cc(-c6cccc(OC)c6)ccc45)c[nH]c3c2)c1 [3aj, 2,2-bis(6-(3-methoxyphenyl)-1H-indol-3-yl)ethan-1-amine] | 96.5% | 2% | 97% | 85% |  |  |  | 
8 | NCC(c1c[nH]c2ccc(-c3ccccc3)cc12)c1c[nH]c2ccc(-c3ccccc3)cc12 [3ba, 2,2-bis(5-phenyl-1H-indol-3-yl)ethan-1-amine] | 96.8% | −22% | 98% | 91% |  |  |  | 
9 | NCC(c1c[nH]c2cc(-c3cccc4ccccc34)ccc12)c1c[nH]c2cc(-c3cccc4ccccc34)ccc12 [3an, 2,2-bis(6-(naphthalen-1-yl)-1H-indol-3-yl)ethan-1-amine] | 97.8% | −15% | 95% | 79% |  |  |  | 
10 | CC(C)(C)OC(=O)n1cccc1-c1ccc2c(C(CN)c3c[nH]c4cc(-c5cccn5C(=O)OC(C)(C)C)ccc34)c[nH]c2c1 [3ap, di-tert-butyl 2,2'-((2-aminoethane-1,1-diyl)bis(1H-indole-3,6-diyl))bis(1H-pyrrole-1-carboxylate)] | 92.6% | 22% | 97% | 85% |  |  |  | 
11 | NCC(c1c[nH]c2cc(-c3cccc(Cl)c3)ccc12)c1c[nH]c2cc(-c3cccc(Cl)c3)ccc12 [3ag, 2,2-bis(6-(3-chlorophenyl)-1H-indol-3-yl)ethan-1-amine] | 93.6% | −7% | 97% | 84% |  |  |  | 
12 | NCC(c1c[nH]c2cc(-c3cccc(OCc4ccccc4)c3)ccc12)c1c[nH]c2cc(-c3cccc(OCc4ccccc4)c3)ccc12 [3ai, 2,2-bis(6-(3-(benzyloxy)phenyl)-1H-indol-3-yl)ethan-1-amine] |  | 1% | 90% | 72% |  |  |  | 
13 | COc1ccccc1-c1ccc2c(C(CN)c3c[nH]c4cc(-c5ccccc5OC)ccc34)c[nH]c2c1 [3ak, 2,2-bis(6-(2-methoxyphenyl)-1H-indol-3-yl)ethan-1-amine] | 96.5% | −4% | 97% | 86% |  |  |  | 
14 | COc1ccc(-c2ccc3c(C(CN)c4c[nH]c5cc(-c6ccc(OC)cc6)ccc45)c[nH]c3c2)cc1 [3ad, 2,2-bis(6-(4-methoxyphenyl)-1H-indol-3-yl)ethan-1-amine] | 95.1% | −12% | 96% | 86% |  |  |  | 
15 | NCC(c1c[nH]c2cc(-c3ccc4ccccc4c3)ccc12)c1c[nH]c2cc(-c3ccc4ccccc4c3)ccc12 [3ao, 2,2-bis(6-(naphthalen-2-yl)-1H-indol-3-yl)ethan-1-amine] | 95.1% | −13% | 94% | 76% |  |  |  | 
16 | NCC(c1c[nH]c2cc(/C=C/c3ccc(Cl)cc3)ccc12)c1c[nH]c2cc(/C=C/c3ccc(Cl)cc3)ccc12 [3ar, 2,2-bis(6-((E)-4-chlorostyryl)-1H-indol-3-yl)ethan-1-amine] | 95.1% | −32% | 95% | 66% |  |  |  | 

Reference: PMC12319374, “Efficient and Rapid Arylation of NH₂‐Unprotected Bromobisindole Ethanamines via Suzuki‐Miyaura Coupling: Generating New Leads Against Leishmania” (Chemistry (Weinheim an Der Bergstrasse, Germany), 2025)
